According to patent publication US7125853B2, “Bicyclic carbohydrate compounds useful in the treatment of infections caused by Flaviviridae sp., such as hepatitis C and bovine viral diarrhea viruses” (Kemin Pharma B.V.B.A., priority 2003, dated 2006):
Converted amounts (≈) assume the structure as drawn.

What was measured:
BVDV strain Pe515 = experiment: anti-BVDV activity in MDBK cells (MTS method); assay type: cell-based, bovine viral diarrhea virus; settings: for anti-viral activity against BVDV (in words): second set of screenings
Method: (§1) The compounds were also screened against flaviviruses. Due to the fact that there is no adequate in vitro assay to screen against HCV, we opted to screen against the bovine viral diarrhea virus (BVDV), as it shares many similarities with the hepatitis C virus. Antiviral activity was assessed using the Pe 515 strain of BVDV on Madin Darby bovine kidney cells (MDBK cells). Both antiviral activity and cytotoxicity was determined by means of the MTS method. The EC50 is the concentration required to reduce virus induced cytopathic effect by 50%. The MTC (minimal toxic concentration) was defined as the concentration that caused >=20% reduction in cell metabolism.

HIV-1 (IIIB) = experiment: HIV-1-induced cytopathicity in CEM cell cultures; assay type: cell-based, human immunodeficiency virus; settings: human lymphocyte CEM cell cultures
HIV-2 (ROD) = assay type: cell-based, human immunodeficiency virus; settings: HIV-induced cytopathicity, human lymphocyte CEM cell cultures
HSV-1 (KOS) = assay type: cell-based, herpes simplex virus; settings: HSV-induced cytopathicity, human embryo fibroblast E6SM cell cultures
HSV-2 (G) = assay type: cell-based, herpes simplex virus; settings: HSV-induced cytopathicity, human embryo fibroblast E6SM cell cultures
CMV Davis, AD-169 = experiment: CMV-induced plaque formation in HEL cells; assay type: cell-based, human cytomegalo virus; settings: human embryonic lung HEL cells, day 7
VZV OKA = assay type: cell-based, varicella zoster virus
MDBK cells = experiment: cytotoxicity in MDBK cells (MTS method); assay type: cell-based, bovine; settings: minimal toxic concentration causing >=20% reduction in cell metabolism; highest concentration 100 μg/ml
Method: as §1

S. aureus ATCC 29213 = experiment: antibacterial microdilution screening; assay type: cell-based, Staphylococcus aureus; settings: 16 hours at 35° C., Mueller-Hinton broth
Method: (§2) Based on the NCCLS documents M7-A4, Vol. 17 No. 2, M27-A, Vol 17 No. 9 and M38-P, Vol 18 No. 13, a microdilution method for conducting the antibacterial and antifungal screenings was developed using a Bioscreen C Analyser (Labsystems, Finland), which is an automated reader-incubator. It measures growth continuously by vertical photometry (optical density), processes the data and provides a print-out of the results. For the bacteria we selected as primary target: Staphylococcus aureus ATCC29213, Enterococcus faecalisATCC 29212, Escherichia coli ATCC 25922 and Pseudomonas aeruginosa ATCC 27853. Candida albicans ATCC 24433 and Cryptococcus neoformans ATCC 90112 were selected as yeast targets. The dermatophyte Trichophyton mentagrophytes ATCC 9533 and the invasive mould Aspergillus fumigatus ATCC 2895 were selected as moulds. All parameters necessary for optimal incubation can be programmed in the Biolink-software (Labsystems, Finland). Incubation for all bacterial screenings was 16 hours at 35° C. The incubation parameters for the screenings against Candida and Cryptococcus were respectively 24 and 48 hours at 35° C., the invasive fungus Aspergillus fumigatus was incubated for 3 days at 30° C. and the dermatophyte T. mentagrophytes was incubated for 5 days at 30° C. As growth media for the bacteria cation adjusted Mueller-Hinton broth (Oxoid, Belgium) was used. A synthetic medium is recommended for fungal susceptibility tests: RPMI 1640, with glutamine, and without bicarbonate and with a pH indicator (Oxoid), supplemented with 1% glucose.25 μl of a 10-fold compound concentration is pipetted into each well. To each 25 μl test compound 225 μl of growth media was added. As measurement tool for the antibacterial and anti-yeast screenings, the area under the growth curve is used, which is automatically determined via the Biolink software. For the screenings against the pathogenic moulds we used endpoint OD-measurement. For internal quality control, reference antibiotics for each micro-organism are incorporated in the set-up of the tests.

E. faecalis ATCC 29212 = experiment: antibacterial microdilution screening; assay type: cell-based, Enterococcus faecalis; settings: 16 hours at 35° C., Mueller-Hinton broth
Method: as §2

E. coli ATCC 25922 = experiment: antibacterial microdilution screening; assay type: cell-based, Escherichia coli; settings: 16 hours at 35° C., Mueller-Hinton broth
Method: as §2

P. aeruginosa ATCC 27853 = experiment: antibacterial microdilution screening; assay type: cell-based, Pseudomonas aeruginosa; settings: 16 hours at 35° C., Mueller-Hinton broth
Method: as §2

C. albicans ATCC 24433 = experiment: antifungal microdilution screening; assay type: cell-based, Candida albicans; settings: 24 hours at 35° C., RPMI 1640
Method: as §2

C. neoformans ATCC 90112 = experiment: antifungal microdilution screening; assay type: cell-based, Cryptococcus neoformans; settings: 48 hours at 35° C., RPMI 1640
Method: as §2

[1] = tested on: T. mentagrophytes ATCC 9533; experiment: antifungal microdilution screening; assay type: cell-based, Trichophyton mentagrophytes; settings: 5 days at 30° C., RPMI 1640
Method: as §2

A. fumigatus ATCC 2895 = experiment: antifungal microdilution screening; assay type: cell-based, Aspergillus fumigatus; settings: 3 days at 30° C., RPMI 1640
Method: as §2

VV = assay type: cell-based, vaccinia virus; settings: VV-induced cytopathicity, human embryo fibroblast E6SM cell cultures
CEM/0 = settings: human T-lymphocyte cells, proliferation
From the text: (§3) The compounds were also checked for anti-tumor activity via the proliferation of murine leukemia cells (L 1210/0), murine mammary carcinoma cells (FM3A) and human T-lymphocyte cells (Molt4/C8, CEM/0).

FM3A/0 = settings: murine mammary carcinoma cells, proliferation
From the text: as §3

L1210/0 = settings: murine leukemia cells, proliferation
From the text: as §3

Molt4/C8 = settings: human T-lymphocyte cells, proliferation
From the text: as §3

[2] = tested on: L1210/0, FM3A/0, Molt4/C8 and CEM/0; experiment: anti-tumor screening, verdict over all tested cell-lines; assay type: cell-based

Row | Structure (SMILES) | EC50 HIV-1 (IIIB) (CEM) (HIV-1 (IIIB)) [µg/mL] | EC50 HIV-2 (ROD) (CEM) (HIV-2 (ROD)) [µg/mL] | EC50 HSV-1 (KOS) (E6SM) (HSV-1 (KOS)) [µg/mL] | EC50 HSV-2 (G) (E6SM) (HSV-2 (G)) [µg/mL] | EC50 CMV Davis, AD-169 (HEL) (CMV Davis, AD-169) [µg/mL] | anti-viral activity against BVDV (in words) (BVDV strain Pe515) | MTC (μg/ml) MDBK (MDBK cells) | MIC S. aureus ATCC 29213 (S. aureus ATCC 29213) [µg/mL] | MIC E. faecalis ATCC 29212 (E. faecalis ATCC 29212) [µg/mL] | MIC E. coli ATCC 25922 (E. coli ATCC 25922) [µg/mL] | MIC P. aeruginosa ATCC 27853 (P. aeruginosa ATCC 27853) [µg/mL] | MIC C. albicans ATCC 24433 (C. albicans ATCC 24433) [µg/mL] | MIC C. neoformans ATCC 90112 (C. neoformans ATCC 90112) [µg/mL] | MIC T. mentagrophytes ATCC 9533 [1] [µg/mL] | MIC A. fumigatus ATCC 2895 (A. fumigatus ATCC 2895) [µg/mL] | EC50 VV (E6SM) (VV) [µg/mL] | IC50 CEM/0 (CEM/0) [µg/mL] | IC50 FM3A/0 (FM3A/0) [µg/mL] | IC50 L1210/0 (L1210/0) [µg/mL] | IC50 Molt4/C8 (Molt4/C8) [µg/mL] | further results
1 | NC(=O)c1ncn([C@@H]2O[C@H](CO)[C@@H](O)[C@H]2O)n1 [Ribavirin, reference compound] | – | – | – | – | – | – | – | – | – | – | – | – | – | – | – | – | – | – | – | – | EC50 (BVDV strain Pe515; Bovine viral diarrhea virus isolates and strains, strain Pe515, MDBK cells, MTS method, values separated by / are independent experiments, read-out: EC50 (μg/ml) BVDV): 40 µg/mL (≈ 164 µM)
2 | CC(C)OC1C(c2ccccc2)OC2COC(c3ccccc3)OC2C1OC(C)C (stereo not shown) [Compound A3] | >20 | >4 | >8 | >8 | >5 | significant anti-viral activity | >100 µg/mL | >25 | >25 | >25 | >25 | >25 | >25 | >25 | >25 | – | – | – | – | – | EC50 VZV (HEL) OKA (VZV OKA; VZV-induced plaque formation, human embryonic lung HEL cell cultures, OKA strain): 1.1 µg/mL (≈ 2.67 µM); activity against VZV (in words) (VZV OKA; first set of screenings): showed activity against VZV; EC50 (μg/ml) BVDV (BVDV strain Pe515; strain Pe515, MDBK cells, MTS method, values separated by / are independent experiments): < 0.8 µg/mL
3 | CCCCOC1C(Cc2ccccc2)OC2COC(c3ccccc3)OC2C1OCCCC (stereo not shown) [Compound A2] | >20 | >20 | >16 | >16 | >20 | moderate activity | >100/>100/>100 μg/ml | >25 | >25 | >25 | >25 | >25 | >25 | >25 | >25 | >16 | 27 ± 2 (≈ 59.4 µM) | 22 ± 0 (≈ 48.4 µM) | 82 ± 7 (≈ 180 µM) | 19 ± 1 (≈ 41.8 µM) | anti-tumor activity against all tested cell-lines (in words) [2]: moderate anti-tumor activity
4 | CCCOC1C(Cc2ccccc2)OC2COC(c3ccccc3)OC2C1OCCC (stereo not shown) [Compound A1] | >20 | >4 | >16 | >16 | >20 | significant anti-viral activity | >100/>100/>100 μg/ml | >25 | >25 | >25 | >25 | >25 | >25 | >25 | >25 | >16 | >200 | >200 | >200 | >200 | anti-tumor activity against all tested cell-lines (in words) [2]: No anti-tumor activity
